# Experimental data: patent US11981669B2, “1,7-naphthyridine derivative and preparation method and use therefor” (CSPC ZHONGQI PHARMACEUTICAL TECHNOLOGY (SHIJIAZHUANG) CO., …, priority 2018, dated 2024)
# Marks after values point to notes of the source that are not given here.
# Key:
# [1] = system: Erythropoietin in liver cancer cells Hep3B; test: Expression of erythropoietin in liver cancer cells Hep3B in vitro (EPO ELISA of supernatant); assay type: cell-based, Human
# Experimental: The cells were adherent cultured overnight, and after discarding the used medium. In the 96-well culture plate, the cells were washed once with 0.5% FBS-containing DMEM medium. […] 0.5% FBS-containing DMEM medium was used instead of the drug solution as the control well. After incubation in a 37° C., 5% CO2 incubator for 24 h, the supernatant was taken as a sample and frozen at −20° C. for later use. An Elisa kit (abeam) was used to detect EPO in the cell supernatant. A microplate reader was used to detect the OD value at 450/620 nm.
# HIF-1α = test: Expression of HIF-1α protein in Hep3B cells (western blot, grayscale analysis); assay type: cell-based, Human; conditions: for fold induction at 30 µM: Homo sapiens, 2 h, compound at 30 μM, 10 μM and 3 μM, read-out: HIF-1α level of the compound of the present disclosure/HIF-1α level of blank control
# Procedure, shortened: (§1)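 Hep3B human hepatoma cells were treated for 2 h with compound at 30, 10 and 3 μM in DMEM containing 0.5% FBS after overnight culture. Protein levels were measured by western blot with grayscale densitometry.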
# HIF-2α = test: Expression of HIF-2α protein in Hep3B cells (western blot, grayscale analysis); assay type: cell-based, Human; conditions: for fold induction at 30 µM: Homo sapiens, 2 h, compound at 30 μM, 10 μM and 3 μM, read-out: HIF-2α level of the compound of the present disclosure/HIF-2α level of blank control
# Procedure, shortened: as §1
# CYP1A2 = CYP1A2 (Homo sapiens (Human), UniProt P05177); assay type: in vitro ADME
# Text: (§2) The compounds of the present disclosure were subjected to the CYP450 enzyme inhibition assay.
# CYP2C19 = CYP2C19 (Homo sapiens (Human), UniProt P33261); test: CYP enzyme inhibition assay; assay type: in vitro ADME
# Text: as §2
# CYP2C9 = CYP2C9 (Homo sapiens (Human), UniProt P11712); test: CYP enzyme inhibition assay; assay type: in vitro ADME
# Text: as §2
# CYP2D6 = CYP2D6 (Homo sapiens (Human), UniProt P10635); test: CYP enzyme inhibition assay; assay type: in vitro ADME
# Text: as §2
# CYP3A4-M = CYP3A4-M (Homo sapiens (Human), UniProt P08684); test: CYP enzyme inhibition assay; assay type: in vitro ADME
# Text: as §2
# hERG channels = hERG channels (Homo sapiens (Human), UniProt Q12809); test: cell-based; assay type: cell-based; conditions: for Inhibitory effect on hERG current at the highest test concentration: human, 30 μM
# [2] = system: rats with residual kidney; test: SD rat residual kidney experiment; assay type: in vivo, SD rats; set-up: Hematocrit / Alanine aminotransferase / Glutamic-oxalacetic transaminase: unit not given here; conditions: for Red blood cells / Alanine aminotransferase / Glutamic-oxalacetic transaminase / Hematocrit / Hemoglobin / Hepcidin: three times each week, 15 times, x ± sd; for Red blood cells: blood 24 hours after last administration; for Effect on glutamic-oxalacetic transaminase / Effect on liver glutamic-pyruvic aminotransferase: compared with the blank control group
# Experimental: 79 SD rats were subjected to residual kidney surgery after anesthesia (left kidney was resected, one third of the right kidney was left, and the resected kidney part was weighed to confirm the surgical error). After 4 weeks, 45 surviving rats were subjected to blood cell dection and then assigned according to the HCT value 37 rats in good condition were selected and divided into the following groups: Link-118 (5, 10 mg/kg), Link-121 (5, 10 mg/kg), and FG-4592 (10 mg/kg), 6 rats in each treatment group, and 7 in the model group. 4 rats were assigned to the blank control group. The rats were administered three times each week (administered on Monday, Wednesday, and Friday), for 15 times, and blood was taken 24 hours after the last administration (tested by blood routine, blood biochemistry, hepcidin kit).
# PHD2 = PHD2 (Homo sapiens (Human), UniProt Q9GZT9); test: PHD enzyme assay (Eu-VBC TR-fluorescence); assay type: biochemical
# Experimental: VHL/elongin B/elongin C were constructed, expressed and purified, and VHL was labeled. PHD1, PHD2 and PHD3 were constructed, expressed and purified. VBC protein was labeled with DELFIA Eu-Labeling Kit. A NeutrAvidin 96-well plate was blocked after the addition of 200 μL Blocker Casein to each well, followed by incubation for 30 min. Each well was washed 3 times by adding 200 μL of washing buffer each time. […] Each well was washed 3 times by adding 200 μL of washing buffer each time. A 1 mM Biotin solution was prepared with Blocker Casein, and 100 μL of the solution was added to each well, followed by incubation for 30 min. Each well was washed 3 times by adding 200 μL of washing buffer each time. A 20× compound solution was prepared with PHD reaction buffer, with the final concentration of DMSO being 1%. […] After mixing homogeneously, the wells were incubated for 60 min. Each well was washed 3 times by adding 200 μL of washing buffer each time A 1 ng/μL Eu-VBC solution was prepared with Eu-VBC binding buffer, and 100 μL of the solution was added to each well, followed by incubation for 60 min. Each well was washed 6 times by adding 200 μL DELFIA Wash Concentrate each time. 100 μL DELFIA Enhancement Solution was added to each well. […] The flurescence of the sample wells was recorded as FLUsample, the flurescence of the full active wells was recorded as FLU100%, and the flurescence of the blank well was recorded as FLU0%.
# erythropoietin = test: Expression of erythropoietin in vivo (plasma EPO ELISA after single oral dose); conditions: once; for EPO OD value: plasma 6 hours after administration; for Promotion of expression of erythropoietin in vivo: at 10 mg/kg;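 as to all read-outs here: male C57 mice given compound by mouth, five animals per treatment group, with EPO in plasma measured by ELISA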
# Experimental: (2) 30 c57 mice, male, were divided into 6 groups, 5 mice in each treatment group. […] 6 hours after the administration, blood was taken, and plasma was collected for EPO detection with an ELISA kit (R&D Co.).
# hERG channels, sequence (Q12809 whole entry): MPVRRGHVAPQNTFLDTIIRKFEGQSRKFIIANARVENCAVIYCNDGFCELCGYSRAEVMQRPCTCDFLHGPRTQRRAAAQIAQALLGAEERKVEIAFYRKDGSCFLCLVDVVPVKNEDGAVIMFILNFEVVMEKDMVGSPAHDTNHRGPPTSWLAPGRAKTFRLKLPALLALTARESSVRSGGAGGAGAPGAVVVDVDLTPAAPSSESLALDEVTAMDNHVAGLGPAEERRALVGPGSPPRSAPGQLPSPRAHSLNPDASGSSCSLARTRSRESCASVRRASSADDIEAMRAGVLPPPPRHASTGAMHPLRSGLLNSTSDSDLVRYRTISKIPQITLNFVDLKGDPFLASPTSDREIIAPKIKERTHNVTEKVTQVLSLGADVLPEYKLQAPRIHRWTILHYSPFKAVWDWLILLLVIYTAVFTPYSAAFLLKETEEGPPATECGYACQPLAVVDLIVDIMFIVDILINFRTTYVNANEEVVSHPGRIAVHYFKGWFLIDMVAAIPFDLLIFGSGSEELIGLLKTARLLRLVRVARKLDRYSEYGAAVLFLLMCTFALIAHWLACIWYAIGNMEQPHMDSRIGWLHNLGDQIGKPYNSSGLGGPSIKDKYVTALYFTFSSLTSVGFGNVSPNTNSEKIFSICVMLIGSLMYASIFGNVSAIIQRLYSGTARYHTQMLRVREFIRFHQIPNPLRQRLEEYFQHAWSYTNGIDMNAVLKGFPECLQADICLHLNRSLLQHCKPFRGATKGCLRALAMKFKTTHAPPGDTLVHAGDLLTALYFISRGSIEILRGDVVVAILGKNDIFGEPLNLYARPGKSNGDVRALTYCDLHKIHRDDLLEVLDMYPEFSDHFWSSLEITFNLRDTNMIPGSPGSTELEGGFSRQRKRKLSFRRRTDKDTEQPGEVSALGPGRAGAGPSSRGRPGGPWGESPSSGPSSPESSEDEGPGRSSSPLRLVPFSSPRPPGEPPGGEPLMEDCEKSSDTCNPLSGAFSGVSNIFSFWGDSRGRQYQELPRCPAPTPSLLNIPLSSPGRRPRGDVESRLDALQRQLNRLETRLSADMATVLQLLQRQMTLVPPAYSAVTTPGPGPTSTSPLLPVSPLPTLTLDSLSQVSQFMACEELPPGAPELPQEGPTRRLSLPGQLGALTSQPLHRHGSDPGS
# PHD2, sequence (Q9GZT9 whole entry): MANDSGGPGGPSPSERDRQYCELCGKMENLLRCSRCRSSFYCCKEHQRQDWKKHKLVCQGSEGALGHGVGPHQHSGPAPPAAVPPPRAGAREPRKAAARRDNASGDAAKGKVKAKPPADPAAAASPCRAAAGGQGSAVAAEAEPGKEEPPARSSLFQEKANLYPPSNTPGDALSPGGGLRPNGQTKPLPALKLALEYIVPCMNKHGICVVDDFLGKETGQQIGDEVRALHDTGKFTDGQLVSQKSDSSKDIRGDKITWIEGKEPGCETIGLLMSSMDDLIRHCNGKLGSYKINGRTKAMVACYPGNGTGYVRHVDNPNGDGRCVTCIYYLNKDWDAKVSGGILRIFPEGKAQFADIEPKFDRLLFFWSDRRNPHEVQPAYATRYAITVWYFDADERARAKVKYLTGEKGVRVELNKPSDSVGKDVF
# CYP3A4-M, sequence (P08684 whole entry): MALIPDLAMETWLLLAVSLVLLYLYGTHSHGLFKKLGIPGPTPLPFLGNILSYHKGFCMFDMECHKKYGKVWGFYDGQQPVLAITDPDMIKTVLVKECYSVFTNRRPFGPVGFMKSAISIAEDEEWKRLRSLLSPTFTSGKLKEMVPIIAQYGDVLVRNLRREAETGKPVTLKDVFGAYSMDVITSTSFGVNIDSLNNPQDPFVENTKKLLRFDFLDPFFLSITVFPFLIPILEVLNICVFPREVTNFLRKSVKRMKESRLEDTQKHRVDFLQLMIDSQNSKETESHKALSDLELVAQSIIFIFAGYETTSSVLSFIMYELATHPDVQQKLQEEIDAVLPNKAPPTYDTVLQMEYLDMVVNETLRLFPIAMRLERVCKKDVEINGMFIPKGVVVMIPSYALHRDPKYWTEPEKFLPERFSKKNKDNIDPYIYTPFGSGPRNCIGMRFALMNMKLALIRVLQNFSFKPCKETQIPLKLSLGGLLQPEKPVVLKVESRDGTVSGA
# CYP2D6, sequence (P10635 whole entry): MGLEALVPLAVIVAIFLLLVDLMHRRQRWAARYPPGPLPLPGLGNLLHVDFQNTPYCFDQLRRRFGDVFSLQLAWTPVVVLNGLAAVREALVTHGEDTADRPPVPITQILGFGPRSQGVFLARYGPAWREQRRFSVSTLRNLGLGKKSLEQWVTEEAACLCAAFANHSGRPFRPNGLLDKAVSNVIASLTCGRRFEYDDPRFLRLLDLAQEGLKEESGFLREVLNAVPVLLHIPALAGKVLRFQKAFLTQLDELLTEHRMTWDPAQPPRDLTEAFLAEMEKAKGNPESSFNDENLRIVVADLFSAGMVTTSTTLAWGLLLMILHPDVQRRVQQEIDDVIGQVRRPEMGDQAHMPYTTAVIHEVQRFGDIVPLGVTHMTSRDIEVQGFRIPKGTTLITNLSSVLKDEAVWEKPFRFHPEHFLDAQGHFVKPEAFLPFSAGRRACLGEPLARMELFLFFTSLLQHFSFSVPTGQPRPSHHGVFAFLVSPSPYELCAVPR
# CYP1A2, sequence (P05177 whole entry): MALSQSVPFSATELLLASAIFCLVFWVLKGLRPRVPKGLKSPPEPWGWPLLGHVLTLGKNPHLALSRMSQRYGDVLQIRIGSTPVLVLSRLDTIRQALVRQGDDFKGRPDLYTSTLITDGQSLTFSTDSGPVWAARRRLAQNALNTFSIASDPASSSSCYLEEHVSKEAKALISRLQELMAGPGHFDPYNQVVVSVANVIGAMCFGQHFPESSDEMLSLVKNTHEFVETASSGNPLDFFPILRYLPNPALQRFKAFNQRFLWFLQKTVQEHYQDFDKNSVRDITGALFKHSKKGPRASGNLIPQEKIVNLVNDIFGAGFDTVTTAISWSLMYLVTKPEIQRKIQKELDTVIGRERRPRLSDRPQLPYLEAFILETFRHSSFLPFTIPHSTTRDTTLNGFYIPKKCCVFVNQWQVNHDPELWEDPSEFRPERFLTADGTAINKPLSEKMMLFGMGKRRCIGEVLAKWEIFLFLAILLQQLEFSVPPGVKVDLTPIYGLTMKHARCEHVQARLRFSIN
# CYP2C9, sequence (P11712 whole entry): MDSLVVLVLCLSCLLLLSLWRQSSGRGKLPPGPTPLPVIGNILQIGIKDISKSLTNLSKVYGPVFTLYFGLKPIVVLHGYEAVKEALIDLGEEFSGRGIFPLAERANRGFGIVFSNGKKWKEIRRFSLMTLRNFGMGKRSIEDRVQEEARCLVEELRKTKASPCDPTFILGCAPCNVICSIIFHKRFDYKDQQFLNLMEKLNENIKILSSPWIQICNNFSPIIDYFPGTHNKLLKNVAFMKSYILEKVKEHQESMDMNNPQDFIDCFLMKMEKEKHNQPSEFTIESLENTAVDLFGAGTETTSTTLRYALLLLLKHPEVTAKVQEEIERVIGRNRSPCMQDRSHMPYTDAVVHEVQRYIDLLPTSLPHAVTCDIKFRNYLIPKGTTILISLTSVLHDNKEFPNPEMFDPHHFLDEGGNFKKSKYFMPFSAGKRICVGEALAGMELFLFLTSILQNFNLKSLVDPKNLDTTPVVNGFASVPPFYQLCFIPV
# CYP2C19, sequence (P33261 whole entry): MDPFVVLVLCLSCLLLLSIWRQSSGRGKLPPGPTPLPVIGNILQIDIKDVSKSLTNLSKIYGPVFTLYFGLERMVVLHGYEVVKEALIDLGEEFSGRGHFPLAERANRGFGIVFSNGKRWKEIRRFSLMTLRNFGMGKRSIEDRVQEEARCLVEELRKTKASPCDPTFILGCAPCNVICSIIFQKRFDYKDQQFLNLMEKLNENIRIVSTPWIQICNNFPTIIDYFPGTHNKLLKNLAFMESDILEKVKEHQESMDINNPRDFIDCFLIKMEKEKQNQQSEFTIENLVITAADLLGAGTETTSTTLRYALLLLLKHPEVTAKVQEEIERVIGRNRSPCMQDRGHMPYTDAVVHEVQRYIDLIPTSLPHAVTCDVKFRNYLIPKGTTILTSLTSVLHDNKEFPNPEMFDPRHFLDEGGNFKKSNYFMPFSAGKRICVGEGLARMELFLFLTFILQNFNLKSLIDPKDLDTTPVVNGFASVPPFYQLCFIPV
SMILES,EPO-enhancing effect compared with positive control drug FG4592 [1],HIF-1α protein expression compared with blank control (HIF-1α),fold induction at 30 µM (HIF-1α),HIF-2α protein expression compared with blank control (HIF-2α),fold induction at 30 µM (HIF-2α),IC50 (CYP1A2) [µM],IC50 (CYP2C19) [µM],IC50 (CYP2C9) [µM],IC50 (CYP2D6) [µM],IC50 (CYP3A4-M) [µM],IC50 (hERG channels) [µM],Inhibitory effect on hERG current at the highest test concentration (hERG channels),Red blood cells ([2]; 5 mg/kg),Alanine aminotransferase ([2]; 5 mg/kg),Glutamic-oxalacetic transaminase ([2]; 5 mg/kg),Hematocrit ([2]; 5 mg/kg),Hemoglobin ([2]; 5 mg/kg) [g/L],Hepcidin ([2]; 5 mg/kg) [ng/mL],Red blood cells ([2]; 10 mg/kg),Alanine aminotransferase ([2]; 10 mg/kg),other results
"O=C(O)CNC(=O)c1nc(Cl)c2nc(Oc3ccccc3)ccc2c1O [Link-118, 2-(2-phenoxy-5-hydroxy-8-chloro-1,7-naphthyridine-6-formamido) Acetic Acid]",higher than that of the positive control drug FG4592,higher than that of the blank control,> 10,higher than that of the blank control,4.5 to 8.5,> 50,> 50,> 50,> 50,> 50,> 30,far from the IC50 value,8.05 ± 0.46** 10^12/L,37.83 ± 1.60,116.50 ± 14.43,45.88 ± 2.87,164 ± 10.99,2.5808 ± 1.0573,9.61 ± 1.06** 10^12/L,35.50 ± 6.28,Promoting effect on HIF-1α expression compared with FG4592 (HIF-1α): stronger than that of the positive control drug FG4592; Glutamic-oxalacetic transaminase ([2]; 10 mg/kg): 113.67 ± 2123; Hematocrit ([2]; 10 mg/kg): 57.2 ± 6.67; Hemoglobin ([2]; 10 mg/kg): 203.83 ± 22.83 g/L; Hepcidin ([2]; 10 mg/kg): 2.4472 ± 0.513 ng/mL; Effect on glutamic-oxalacetic transaminase [2]: no significant effect; Effect on liver glutamic-pyruvic aminotransferase [2]: no significant effect; Effect on HCT in rats with residual kidney ([2]; compared with the model group): significantly increase; Effect on HGB in rats with residual kidney ([2]; compared with the model group): significantly increase; Effect on RBC in rats with residual kidney ([2]; compared with the model group): significantly increase; Effect on hepcidin in rats with residual kidney ([2]; compared with the model group): significantly inhibit; Efficacy compared with FG-4592 at the same dose ([2]; rats with residual kidney): better than that of FG-4592; Effect on PHD2 compared with compounds of Comparative Examples 1-3 (PHD2): better effect; IC50 (PHD2): 207 nM; EPO OD value (erythropoietin; 10 mg/kg): D (D represents EPO OD value>3); EPO OD value (erythropoietin; 50 mg/kg): D (D represents EPO OD value>3); Promotion of expression of erythropoietin in vivo (erythropoietin): significantly promote the expression of erythropoietin
"O=C(O)CNC(=O)c1nc(Br)c2nc(Oc3ccccc3)ccc2c1O [Link-121, 2-(2-phenoxy-5-hydroxy-8-bromo-1,7-naphthyridine-6-formamido) Acetic Acid]",higher than that of the positive control drug FG4592,higher than that of the blank control,4.5 to 8.5,higher than that of the blank control,4.5 to 8.5,> 50,> 50,> 50,> 50,> 50,> 30,far from the IC50 value,7.68 ± 0.46 10^12/L,56.40 ± 25.89,130.80 ± 3126,43 ± 2.26,150.60 ± 8.62,2.8289 ± 0.7597,8.12 ± 1.11 10^12/L,47.5 ± 7.23,Glutamic-oxalacetic transaminase ([2]; 10 mg/kg): 12125 ± 16.11; Hematocrit ([2]; 10 mg/kg): 46.86 ± 629; Hemoglobin ([2]; 10 mg/kg): 163.40 ± 24.44 g/L; Hepcidin ([2]; 10 mg/kg): 2.5494 ± 1.3532 ng/mL; Effect on glutamic-oxalacetic transaminase [2]: no significant effect; Effect on liver glutamic-pyruvic aminotransferase [2]: no significant effect; Effect on HCT in rats with residual kidney ([2]; compared with the model group): significantly increase; Effect on HGB in rats with residual kidney ([2]; compared with the model group): significantly increase; Effect on hepcidin in rats with residual kidney ([2]; compared with the model group): reduced; Effect on PHD2 compared with compounds of Comparative Examples 1-3 (PHD2): better effect; IC50 (PHD2): 353 nM; EPO OD value (erythropoietin; 10 mg/kg): C (C represents 2<EPO OD value<3); EPO OD value (erythropoietin; 50 mg/kg): D (D represents EPO OD value>3); Promotion of expression of erythropoietin in vivo (erythropoietin): significantly promote the expression of erythropoietin
